Earlier results, collected in US5514673A, “Pharmaceutical composition containing lipophilic drugs” (priority 1993, dated 1996).

Key:
[1] = in vivo
[2] = sublingual and buccal, sex hormone compositions
[3] = animal tests
[4] = for first pass effect: oral
[5] = physiological saline solution

Compound | nephrotoxicity and haemolytic activity [1] | effect on the absorption [2] | influence on drug uptake [3] | oral effectiveness [4] | first pass effect [4] | suitability of intranasal administration [5]
dimethyl-β-cyclodextrin | nephrotoxicity and haemolytic activity | virtually no effect on the absorption | adversely influence the drug uptake | – | – | –
C[C@]12CC[C@@H]3c4ccc(O)cc4CC[C@H]3[C@@H]1CC[C@@H]2O [17β-estradiol] | – | – | – | very limited oral effectiveness | high first pass effect | unsuitable
CC(=O)[C@H]1CC[C@H]2[C@@H]3CCC4=CC(=O)CC[C@]4(C)[C@H]3CC[C@]12C [Progesterone, progesterone] | – | – | – | very limited oral effectiveness | high first pass effect | –
